In patent US10899737B2, “Piperazine carbamates and methods of making and using same” (Lundbeck La Jolla Research Center, Inc., priority 2016, dated 2021):

Experiments:
Type in all cases: biochemical
MAGL [1] = molecular target: T1, MAGL (Mus musculus, UniProt O35678); assay: In vitro competitive activity-based protein profiling (mouse), MAGL; conditions: for inhibition at 1 µM: 1 μM inhibitor, mouse brain membrane fraction or cell lysates, read-out: MAGL % inh. 1 μM (mouse)
T1 construct: Proteomes (mouse brain membrane fraction or cell lysates); from tissue; host or cells: mouse brain membrane fraction or cell lysates
T1 sequence (O35678 1-303): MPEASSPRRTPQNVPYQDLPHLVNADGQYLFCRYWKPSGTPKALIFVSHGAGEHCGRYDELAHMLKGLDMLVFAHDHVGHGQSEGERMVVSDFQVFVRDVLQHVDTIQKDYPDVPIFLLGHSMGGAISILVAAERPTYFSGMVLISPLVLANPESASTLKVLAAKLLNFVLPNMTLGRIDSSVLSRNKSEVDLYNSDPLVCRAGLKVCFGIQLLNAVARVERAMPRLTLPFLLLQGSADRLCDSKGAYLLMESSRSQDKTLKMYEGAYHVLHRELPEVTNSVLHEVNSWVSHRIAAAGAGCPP
Description: (§1) In Vitro Competitive Activity-Based Protein Profiling (Mouse).
(§2) Proteomes (mouse brain membrane fraction or cell lysates) (50 μL, 1.0 mg/mL total protein concentration) were preincubated with varying concentrations of inhibitors at 37° C. After 30 min, FP-Rh (1.0 μL, 50 μM in DMSO) was added and the mixture was incubated for another 30 min at 37° C. Reactions were quenched with SDS loading buffer (50 μL-4×) and run on SDS-PAGE. Following gel imaging, serine hydrolase activity was determined by measuring fluorescent intensity of gel bands corresponding to MAGL and ABHD6 using ImageJ 1.49 k software. Data from this assay is shown in Table 1 (% inhibition at 1 μM).

MAGL [2] = molecular target: T2, MAGL (Homo sapiens, UniProt Q99685); assay: In vitro competitive activity-based protein profiling (human), MAGL; conditions: for inhibition at 1 µM: 1 μM inhibitor, human proteome, 30 min preincubation at 37° C, read-out: MAGL % inh. 1 μM (human); for IC50: human PC3
T2 construct: Proteomes (human prefrontal cortex or cell membrane fractions); from tissue
T2 sequence (Q99685 1-303): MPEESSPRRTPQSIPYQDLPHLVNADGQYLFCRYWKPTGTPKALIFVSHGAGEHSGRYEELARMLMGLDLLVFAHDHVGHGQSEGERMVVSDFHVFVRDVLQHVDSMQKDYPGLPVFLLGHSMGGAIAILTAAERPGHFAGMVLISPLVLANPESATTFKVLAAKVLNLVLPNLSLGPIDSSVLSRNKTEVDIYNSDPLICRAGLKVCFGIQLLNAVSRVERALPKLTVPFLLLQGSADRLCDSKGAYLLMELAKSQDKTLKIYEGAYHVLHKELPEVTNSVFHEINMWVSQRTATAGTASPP
Description: (§3) In Vitro Competitive Activity-Based Protein Profiling (Human).
(§4) Proteomes (human prefrontal cortex or cell membrane fractions) (50 μL, 1.0-2.0 mg/mL total protein concentration) were preincubated with varying concentrations of inhibitors at 37° C. After 30 min, FP-Rh or JW912 (1.0 μL, 50 μM in DMSO) was added and the mixture was incubated for another 30 min at room temperature. Reactions were quenched with SDS loading buffer (15 μL-4×) and run on SDS-PAGE. Following gel imaging, serine hydrolase activity was determined by measuring fluorescent intensity of gel bands corresponding to MAGL and ABHD6 using ImageJ 1.49 k software.

ABHD6 [3] = molecular target: T3, ABHD6 (Mus musculus, UniProt Q8R2Y0); assay: In vitro competitive activity-based protein profiling (mouse), ABHD6; conditions: 1 μM inhibitor, mouse brain membrane fraction or cell lysates; read-out: ABHD6 % inh. 1 μM (mouse)
T3 construct: Proteomes (mouse brain membrane fraction or cell lysates); from tissue; host or cells: mouse brain membrane fraction or cell lysates
T3 sequence (Q8R2Y0 1-336): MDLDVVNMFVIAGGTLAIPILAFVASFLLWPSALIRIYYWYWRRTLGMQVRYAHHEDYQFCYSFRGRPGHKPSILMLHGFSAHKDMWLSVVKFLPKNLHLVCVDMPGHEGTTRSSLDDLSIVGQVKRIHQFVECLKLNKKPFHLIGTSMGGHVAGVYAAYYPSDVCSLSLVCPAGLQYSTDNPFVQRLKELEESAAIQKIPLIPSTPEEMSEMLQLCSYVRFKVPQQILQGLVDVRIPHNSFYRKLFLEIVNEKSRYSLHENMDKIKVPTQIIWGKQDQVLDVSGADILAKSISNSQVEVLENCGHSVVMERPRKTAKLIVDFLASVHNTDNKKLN
Description: as §1, §2

ABHD6 [4] = molecular target: T4, ABHD6 (Homo sapiens, UniProt Q9BV23); assay: In vitro competitive activity-based protein profiling (human), ABHD6; conditions: human PC3
T4 construct: Proteomes (human prefrontal cortex or cell membrane fractions); endogenous in cells; human prefrontal cortex
T4 sequence (Q9BV23 1-337): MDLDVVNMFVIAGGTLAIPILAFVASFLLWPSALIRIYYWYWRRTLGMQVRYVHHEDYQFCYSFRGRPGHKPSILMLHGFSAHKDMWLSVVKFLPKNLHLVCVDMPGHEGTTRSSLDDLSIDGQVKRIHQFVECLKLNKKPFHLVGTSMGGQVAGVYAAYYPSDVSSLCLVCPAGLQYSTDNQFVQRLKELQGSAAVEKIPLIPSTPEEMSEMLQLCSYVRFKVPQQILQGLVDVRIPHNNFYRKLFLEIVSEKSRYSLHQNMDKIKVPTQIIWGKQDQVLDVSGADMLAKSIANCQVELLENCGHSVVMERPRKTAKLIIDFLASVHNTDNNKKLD
Description: as §3, §4

Row | Structure (SMILES) | inhibition at 1 µM (MAGL [1]) | inhibition at 1 µM (MAGL [2]) | IC50 (MAGL [2]) | inhibition at 1 µM (ABHD6 [3]) | IC50 (ABHD6 [4]) | IC50 (MAGL [1]; mouse proteome)
1 | O=C(O)CN1CCN(C(=O)c2cc(C(F)(F)F)ccc2CN2CCN(C(=O)OC(C(F)(F)F)C(F)(F)F)CC2)CC1 [Example 28, 2-(4-(2-((4-(((1,1,1,3,3,3-Hexafluoropropan-2-yl)oxy)carbonyl)piperazin-1-yl)methyl)-5-(trifluoromethyl)benzoyl)piperazin-1-yl)acetic Acid] | ≥ 75% | ≥ 75% | 0.1 to 1 µM | 25 to 50% | 1 to 10 µM | –
2 | CC1(C(=O)O)CCN(c2cc(CN3CCN(C(=O)OC(C(F)(F)F)C(F)(F)F)CC3)cc(C(F)(F)F)c2)CC1 [Example 29, 1-(3-((4-(((1,1,1,3,3,3-Hexafluoropropan-2-yl)oxy)carbonyl)piperazin-1-yl)methyl)-5-(trifluoromethyl)phenyl)-4-methylpiperidine-4-carboxylic Acid] | ≥ 75% | ≥ 75% | ≤ 0.1 µM | ≥ 75% | ≤ 0.1 µM | –
3 | O=C(OC(C(F)(F)F)C(F)(F)F)N1CCN(Cc2cc(Cl)cc(C3(C(=O)O)CCCC3)c2)CC1 [Example 32, 1-(3-Chloro-5-((4-(((1,1,1,3,3,3-hexafluoropropan-2-yl)oxy)carbonyl)piperazin-1-yl)methyl)phenyl)cyclopentane-1-carboxylic Acid] | ≥ 75% | ≥ 75% | ≤ 0.1 µM | ≥ 75% | 0.1 to 1 µM | –
4 | O=C(O)CN1CCCC1C1CCN(c2cc(Cl)ccc2CN2CCN(C(=O)OC(C(F)(F)F)C(F)(F)F)CC2)CC1 (centres unmarked) [Example 34, 2-(2-(1-(5-Chloro-2-((4-(((1,1,1,3,3,3-hexafluoropropan-2-yl)oxy)carbonyl)piperazin-1-yl)methyl)phenyl)piperidin-4-yl)pyrrolidin-1-yl)acetic Acid] | ≥ 75% | ≥ 75% | ≤ 0.1 µM | 50 to 75% | 1 to 10 µM | –
5 | O=C(OC(C(F)(F)F)C(F)(F)F)N1CCN(Cc2ccc(C(F)(F)F)c(C3(C(=O)O)CCCC3)c2)CC1 [Example 37, 1-(5-((4-(((1,1,1,3,3,3-hexafluoropropan-2-yl)oxy)carbonyl)piperazin-1-yl)methyl)-2-(trifluoromethyl)phenyl)cyclopentane-1-carboxylic acid] | ≥ 75% | ≥ 75% | ≤ 0.1 µM | ≥ 75% | 0.1 to 1 µM | –
6 | O=C(O)C1CCN(Cc2cc(C(F)(F)F)ccc2CN2CCN(C(=O)OC(C(F)(F)F)C(F)(F)F)CC2)CC1 [Example 41, 1-(2-((4-(((1,1,1,3,3,3-hexafluoropropan-2-yl)oxy)carbonyl)piperazin-1-yl)methyl)-5-(trifluoromethyl)benzyl)piperidine-4-carboxylic acid] | ≥ 75% | ≥ 75% | 0.1 to 1 µM | 0 to 25% | 1 to 10 µM | –
7 | O=C(O)CN1CC2(CCN(c3cc(Cl)ccc3CN3CCN(C(=O)OC(C(F)(F)F)C(F)(F)F)CC3)CC2)C1 [Example 47, 2-(7-(5-chloro-2-((4-(((1,1,1,3,3,3-hexafluoropropan-2-yl)oxy)carbonyl)piperazin-1-yl)methyl)phenyl)-2,7-diazaspiro[3.5]nonan-2-yl)acetic acid] | ≥ 75% | ≥ 75% | ≤ 0.1 µM | 0 to 25% | 1 to 10 µM | ≤ 0.1 µM
8 | O=C(O)CN1CCC2(C1)CN(c1cc(Cl)ccc1CN1CCN(C(=O)OC(C(F)(F)F)C(F)(F)F)CC1)C2 [Example 48, 2-(2-(5-chloro-2-((4-(((1,1,1,3,3,3-hexafluoropropan-2-yl)oxy)carbonyl)piperazin-1-yl)methyl)phenyl)-2,6-diazaspiro[3.4]octan-6-yl)acetic acid] | ≥ 75% | ≥ 75% | ≤ 0.1 µM | 0 to 25% | 1 to 10 µM | –
9 | O=C(O)CNC1CCN(c2cc(C(F)(F)F)ccc2CN2CCN(C(=O)OC(C(F)(F)F)C(F)(F)F)CC2)CC1 [Example 49, (1-(2-((4-(((1,1,1,3,3,3-hexafluoropropan-2-yl)oxy)carbonyl)piperazin-1-yl)methyl)-5-(trifluoromethyl)phenyl)piperidin-4-yl)glycine] | ≥ 75% | ≥ 75% | ≤ 0.1 µM | 0 to 25% | 1 to 10 µM | –
10 | CCCC1(C(=O)O)CCN(c2cc(CN3CCN(C(=O)OC(C(F)(F)F)C(F)(F)F)CC3)cc(C(F)(F)F)c2)CC1 [Example 52, 1-(3-((4-(((1,1,1,3,3,3-hexafluoropropan-2-yl)oxy)carbonyl)piperazin-1-yl)methyl)-5-(trifluoromethyl)phenyl)-4-propylpiperidine-4-carboxylic acid] | ≥ 75% | ≥ 75% | ≤ 0.1 µM | ≥ 75% | 0.1 to 1 µM | –
11 | CCC1(C(=O)O)CCN(c2cc(CN3CCN(C(=O)OC(C(F)(F)F)C(F)(F)F)CC3)cc(C(F)(F)F)c2)CC1 [Example 53, 4-ethyl-1-(3-((4-(((1,1,1,3,3,3-hexafluoropropan-2-yl)oxy)carbonyl)piperazin-1-yl)methyl)-5-(trifluoromethyl)phenyl)piperidine-4-carboxylic acid] | ≥ 75% | ≥ 75% | ≤ 0.1 µM | ≥ 75% | 0.1 to 1 µM | –
12 | CC1(C(=O)O)CCCN(c2cc(CN3CCN(C(=O)OC(C(F)(F)F)C(F)(F)F)CC3)cc(C(F)(F)F)c2)C1 (centres unmarked) [Example 56, 1-(3-((4-(((1,1,1,3,3,3-hexafluoropropan-2-yl)oxy)carbonyl)piperazin-1-yl)methyl)-5-(trifluoromethyl)phenyl)-3-methylpiperidine-3-carboxylic acid] | ≥ 75% | ≥ 75% | ≤ 0.1 µM | 0 to 25% | ≤ 0.1 µM | –
13 | O=C(O)CNCC1CCN(c2cc(C(F)(F)F)ccc2CN2CCN(C(=O)OC(C(F)(F)F)C(F)(F)F)CC2)CC1 [Example 61, ((1-(2-((4-(((1,1,1,3,3,3-hexafluoropropan-2-yl)oxy)carbonyl)piperazin-1-yl)methyl)-5-(trifluoromethyl)phenyl)piperidin-4-yl)methyl)glycine] | ≥ 75% | ≥ 75% | ≤ 0.1 µM | 0 to 25% | 1 to 10 µM | –
14 | O=C(O)[C@@H]1CCCN(c2cc(CN3CCN(C(=O)OC(C(F)(F)F)C(F)(F)F)CC3)cc(C(F)(F)F)c2)C1 [Example 66, (R)-1-(3-((4-(((1,1,1,3,3,3-hexafluoropropan-2-yl)oxy)carbonyl)piperazin-1-yl)methyl)-5-(trifluoromethyl)phenyl)piperidine-3-carboxylic acid] | ≥ 75% | ≥ 75% | ≤ 0.1 µM | ≥ 75% | ≤ 0.1 µM | –
